The text below walks through data of patent US8932646B2, “Peroxide contact lens care solution” (Bausch & Lomb Incorporated, priority 2010, dated 2015).

Series [1] in a line: Osmolality after peroxide neutralization. It is filed as physicochemical. Conditions: disinfecting solution with 3 wt. % urea hydrogen peroxide.
The nature of series [2]: Peroxide neutralization rate profile in Clear Care® lens case with platinum element. It is filed as physicochemical.
Text: All of the peroxide neutralization data described herein was obtained with a hydrogen peroxide lens case provided in a contact lens care product package sold as Clear Care® by CibaVision. The Clear Care® product packages with the included lens case were purchased in the United States in 2009-10. Each of the hydrogen peroxide neutralization profiles and rate constants (as well as calculated the half-lives) stated herein and in the claims were obtained with a Clear Care® lens case.
The line plots shown in FIG. 5B is determined from the peroxide neutralization data of FIG. 5A over the initial 60 minutes, i.e. at time of 0, 5 min, 15 min, 30 min and 60 min. […] The pseudo first-order rate constant is determined from the slope of the line plots.
The peroxide neutralization rate profiles of select disinfecting solutions were determined as follows. […] Aliquots of the solution are removed at the stated time points and the concentration of hydrogen peroxide is determined by known analytical methods.
The aliquots of solution are titrated with 0.1N potassium permanganate in the presence of an acidic aqueous solution. […] The sample is placed in the system and analyzed using a built-in hydrogen peroxide determination method. […] Once an endpoint is determined the instrument calculates the hydrogen peroxide concentration of the sample. […]

Take `NC(N)=O.OO` [urea hydrogen peroxide]: the “osmolality of the solution following neutralization of the peroxide” value in series [1] is listed as “about 600 mOsmol/kg”.

Consider `NCCS(=O)(=O)O` [taurine], for which the “effect on the rate of peroxide neutralization” value was “much greater reduction in the rate of peroxide neutralization” in series [2] (0.1 wt. % or 1000 ppm) and “very small effect on the rate of peroxide neutralization” in series [2] (100 ppm).
